This assay deals with T1, GmSULTR1;2b.
T1 construct: C-terminal STAS domain
As to the kind of experiment: […]-sulfate uptake in sul1 sul2 yeast cells, Michaelis-Menten fit. It is filed as cell-based, Glycine max. The following applies: pH 6.0; proton-coupled uptake; yeast CP154-7A; labelled compound.

This is an account of results in PMC4874011, “Identification and functional characterization of the sulfate transporter gene GmSULTR1;2b in soybean” (BMC Genomics, 2016).

For `O=S(=O)(O)O` [sulfate], the Km (as a rule, the substrate concentration at which the rate is half of its maximum) was 9.5 ± 1.7 µM.
